Each structure is given as a SMILES string.

These results are taken from patent publication US20260014147A1, “STAT6 DEGRADERS” (Gilead Sciences, Inc., priority 2024, published 2026).

In the first test the test system is Eotaxin-3 (CCL26) release in human whole blood stimulated with IL-4. In words: Human Whole Blood Eotaxin-3 Assay (IL-4 stimulated, inhibition of eotaxin-3 release). The format is cell-based. Particulars: Homo sapiens, EC50 provided for test compounds with >80% Emax, geometric mean across assay runs and batches. On the procedure:
This was a human whole blood assay using recombinant human Interleukin 4 to stimulate the blood and measuring the ability of the test compounds to inhibit eotaxin-3 release. The biological activities of the test compounds have been tested in human whole blood stimulated with IL-4 measuring Eotaxin-3 release. The test compounds were added to 384 well clear flat-bottom plate in a 4-fold serial dilution in triplicates using a liquid handler. Human whole blood stabilized in lithium-heparin tubes was added in a volume of 65 uL per well, resulting in a final DMSO concentration of 0.5%. The plate is incubated for 2 h at 37° C. under 5% CO2/95% air. Subsequently, 5 μL of recombinant human IL-4 (R&D Systems, cat #204-ILB) was added to the wells to a final concentration of 400 pM. The plate was incubated for 48 h at 37° C. under 5% CO2/95% air. The plate was spun down for 10 minutes at 500×g and 20 uL supernatant was harvested and transferred to a 384 well v-bottom plate using a liquid handler and stored at −20° C. until further analysis. 10 uL supernatant was used to measure the level of Eotaxin-3 (CCL26) using Human Eotaxin-3 MSD kit from Mesocsale (Cat #K251UEK-4). The assay was performed according to the manufacture instructions.
The data from the human whole blood eotaxin-3 assay is shown below for Examples 2q11, 2110, and 2c49 (where the effect in % is plotted against the test concentration in M on a log-scale).
`C[C@@H](c1cc2c(-c3ccc(N)nc3)ccnc2n1C)N1CCC(c2ccc(C(=O)N3CCC(CN4CCN(c5ccc(NC6CCC(=O)NC6=O)cc5F)C[C@H]4C(F)(F)F)CC3)cc2)CC1` (single isomer, unassigned) [Example 2f10] yielded an EC50 of 0.385 µM.

As to `C[C@@H](c1cc2c(-c3ccc(N)nc3)ccnc2n1C)N1CCC(c2ccc(C(=O)N3CCC(CN4CCN(c5ccc(NC6CCC(=O)NC6=O)cc5F)C[C@@H]4C(F)(F)F)CC3)cc2)CC1` (single isomer, unassigned) [Example 2f11], the EC50 was 0.406 µM.

In turn, `COc1cc(N2CCN(CC3CCN(C(=O)c4ccc(C5CCN([C@@H](C)c6cc7c(-c8ccc(N)nc8)ccnc7n6C)CC5)cc4)CC3)CC2)ccc1NC1CCC(=O)NC1=O` (stereo partly drawn) [Example 2c40, 3-((4-(4-((1-(4-(1-((S)-1-(4-(6-aminopyridin-3-yl)-1-methyl-1H-pyrrolo[2,3-b]pyridin-2-yl)ethyl)piperidin-4-yl)benzoyl)piperidin-4-yl)methyl)piperazin-1-yl)-2-methoxyphenyl)amino)piperidine-2,6-dione] had a half-maximal effective concentration (EC50) of 0.112 µM. This EC50 lies about 3.6-fold lower than the previous one.

The compound `CNc1ccc(-c2ccnc3c2cc([C@H](C)N2CC=C(c4c(C)cc(C(=O)N5CCC(CN6CCN(c7ccc(NC8CCC(=O)NC8=O)cc7F)C[C@@H]6C)CC5)cc4F)CC2)n3C)cn1` (stereo partly drawn) [Example 2c47, 3-((3-fluoro-4-((S)-4-((1-(3-fluoro-5-methyl-4-(1-((S)-1-(1-methyl-4-(6-(methylamino)pyridin-3-yl)-1H-pyrrolo[2,3-b]pyridin-2-yl)ethyl)-1,2,3,6-tetrahydropyridin-4-yl)benzoyl)piperidin-4-yl)methyl)-3-methylpiperazin-1-yl)phenyl)amino)piperidine-2,6-dione] registered a 50% effective concentration (EC50) of 0.197 µM.

Compound `CNc1ccc(-c2ccnc3c2cc([C@H](C)N2CC=C(c4c(C)cc(C(=O)N5CCn6nc(CN7CCC(c8ccc(NC9CCC(=O)NC9=O)c(OC)c8)CC7)cc6C5)cc4F)CC2)n3C)cn1` (stereo partly drawn) [Example 2c49, 3-((4-(1-((5-(3-fluoro-5-methyl-4-(1-((S)-1-(1-methyl-4-(6-(methylamino)pyridin-3-yl)-1H-pyrrolo[2,3-b]pyridin-2-yl)ethyl)-1,2,3,6-tetrahydropyridin-4-yl)benzoyl)-4,5,6,7-tetrahydropyrazolo[1,5-a]pyrazin-2-yl)methyl)piperidin-4-yl)-2-methoxyphenyl)amino)piperidine-2,6-dione] yielded an EC50 of 0.003 µM.

In turn, `C[C@H]1CN(c2ccc(NC3CCC(=O)NC3=O)cc2F)CCN1CC1CCN(C(=O)c2ccc(C3CCN([C@@H](C)c4cc5c(-c6ccc(N)nc6)ccnc5n4C)CC3)cc2)CC1` (stereo partly drawn) [Example 2c54, 3-((4-((S)-4-((1-(4-(1-((S)-1-(4-(6-aminopyridin-3-yl)-1-methyl-1H-pyrrolo[2,3-b]pyridin-2-yl)ethyl)piperidin-4-yl)benzoyl)piperidin-4-yl)methyl)-3-methylpiperazin-1-yl)-3-fluorophenyl)amino)piperidine-2,6-dione] yielded an EC50 of 0.265 µM. This EC50 lies about 88-fold higher than the previous one.

`C[C@H]1CN(c2ncc(NC3CCC(=O)NC3=O)cc2F)CCN1CC1CCN(C(=O)c2ccc(C3CCN([C@@H](C)c4cc5c(-c6ccc(N)nc6)ccnc5n4C)CC3)cc2)CC1` (stereo partly drawn) [Example 2c55, 3-((6-((S)-4-((1-(4-(1-((S)-1-(4-(6-aminopyridin-3-yl)-1-methyl-1H-pyrrolo[2,3-b]pyridin-2-yl)ethyl)piperidin-4-yl)benzoyl)piperidin-4-yl)methyl)-3-methylpiperazin-1-yl)-5-fluoropyridin-3-yl)amino)piperidine-2,6-dione]: a half-maximal effect (EC50) was put at 0.247 µM. This EC50 and that of the compound before are within 1.5-fold of each other.

For `COCc1nc2cc(-c3ccnc4c3cc(CN3CCC(c5ccc(C(=O)N6CCn7nc(CN8CCC(c9ncc(NC%10CCC(=O)NC%10=O)cc9F)CC8)cc7C6)cc5)CC3)n4C)ccc2[nH]1` (centres unmarked) [Example 2q8, 3-((5-fluoro-6-(1-((5-(4-(1-((4-(2-(methoxymethyl)-1H-benzo[d]imidazol-5-yl)-1-methyl-1H-pyrrolo[2,3-b]pyridin-2-yl)methyl)piperidin-4-yl)benzoyl)-4,5,6,7-tetrahydropyrazolo[1,5-a]pyrazin-2-yl)methyl)piperidin-4-yl)pyridin-3-yl)amino)piperidine-2,6-dione], the half-maximal effective concentration (EC50) worked out at 0.0251 µM.

Another test has as its target T1, STAT6 (endogenous, HiBiT-tagged) in HeLa LgBiT clone 4.14 cells (Homo sapiens, UniProt P42226).
T1 construct: These cells express endogenous STAT6; host or cells: HeLa LgBiT clone 4.14
T1 sequence (P42226 1-847): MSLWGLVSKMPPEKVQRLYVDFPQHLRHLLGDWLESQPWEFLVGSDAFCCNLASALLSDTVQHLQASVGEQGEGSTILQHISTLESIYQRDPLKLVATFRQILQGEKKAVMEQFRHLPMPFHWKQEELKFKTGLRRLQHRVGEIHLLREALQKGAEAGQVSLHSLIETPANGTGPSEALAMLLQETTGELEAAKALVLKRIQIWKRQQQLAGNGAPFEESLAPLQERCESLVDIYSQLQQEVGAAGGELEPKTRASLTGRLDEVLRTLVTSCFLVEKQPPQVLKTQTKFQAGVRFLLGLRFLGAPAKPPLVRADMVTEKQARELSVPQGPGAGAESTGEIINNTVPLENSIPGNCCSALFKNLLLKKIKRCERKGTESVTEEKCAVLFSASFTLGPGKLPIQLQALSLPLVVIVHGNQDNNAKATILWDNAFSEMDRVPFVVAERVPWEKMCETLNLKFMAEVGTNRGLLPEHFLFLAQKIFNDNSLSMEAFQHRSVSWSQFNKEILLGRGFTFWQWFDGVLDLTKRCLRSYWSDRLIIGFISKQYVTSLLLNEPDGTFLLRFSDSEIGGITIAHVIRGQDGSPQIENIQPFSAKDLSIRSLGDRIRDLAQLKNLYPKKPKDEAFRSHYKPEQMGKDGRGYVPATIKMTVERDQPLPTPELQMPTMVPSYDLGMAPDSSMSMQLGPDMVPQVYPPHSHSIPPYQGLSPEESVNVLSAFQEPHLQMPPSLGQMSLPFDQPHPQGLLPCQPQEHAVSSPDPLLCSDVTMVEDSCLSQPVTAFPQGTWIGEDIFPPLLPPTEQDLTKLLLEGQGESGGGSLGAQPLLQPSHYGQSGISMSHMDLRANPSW
In words: STAT6 Degrader Assay (HiBiT based, HeLa LgBiT clone 4.14 cells, luminescence, DC50). The format is cell-based. The following applies: DC50 provided for test compounds with >80% Emax, geometric mean, read-out: STAT6 degradation DC50. The method in brief: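 HeLa LgBiT clone 4.14 cells carry CRISPR-inserted HiBiT on endogenous STAT6; 5000 cells/well were exposed to compound for 4-24 h at 37 °C, 5% CO2. Nano-Glo substrate added for 0.5 h; luminescence reflects remaining STAT6, with terfenadine ([…]) wells defining 100% degradation.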
Regarding `Cn1c(CN2CCC(c3ccc(-c4nnc5ccc(N6CCC(CN7CCN(c8ccc(NC9CCC(=O)NC9=O)cc8F)CC7)CC6)nn45)cc3)CC2)cc2c(-c3ccc(N)nc3)ccnc21` (centres unmarked) [Example 2r1, 3-((4-(4-((1-(3-(4-(1-((4-(6-aminopyridin-3-yl)-1-methyl-1H-pyrrolo[2,3-b]pyridin-2-yl)methyl)-piperidin-4-yl)phenyl)-[1,2,4]triazolo[4,3-b]pyridazin-6-yl)piperidin-4-yl)methyl)piperazin-1-yl)-3-fluorophenyl)-amino)piperidine-2,6-dione], the DC50 turned out to be 0.00035 µM.

Staying with this test, now noted: Emax provided for test compounds with <80% Emax (and 2c15), geometric mean, read-out: STAT6 degradation Emax.
Regarding `Cn1c(CN2CCC(c3ccc(C(=O)N4CCC(CN5CCN(Cc6ccc(NC7CCC(=O)NC7=O)cc6)CC5)CC4)cc3)CC2)cc2c(-c3ccc4[nH]ncc4c3)ccnc21` (centres unmarked) [Example 2s1, 3-((4-((4-((1-(4-(1-((4-(1H-indazol-5-yl)-1-methyl-1H-pyrrolo[2,3-b]pyridin-2-yl)methyl)-piperidin-4-yl)benzoyl)piperidin-4-yl)methyl)piperazin-1-yl)methyl)phenyl)amino)piperidine-2,6-dione], the Emax lay in the range of 60 to 70%.

`Cn1c(CN2CCC(c3ccc(C(=O)N4CCC(CN5CCN(Cc6ccc(NC7CCC(=O)NC7=O)cc6F)CC5)CC4)cc3)CC2)cc2c(-c3ccc(N)nc3)ccnc21` (centres unmarked) [Example 2s2, 3-((4-((4-((1-(4-(1-((4-(6-aminopyridin-3-yl)-1-methyl-1H-pyrrolo[2,3-b]pyridin-2-yl)methyl)piperidin-4-yl)benzoyl)piperidin-4-yl)methyl)piperazin-1-yl)methyl)-3-fluorophenyl)amino)piperidine-2,6-dione]: the Emax lay within 40 to 50%.

Take `Cn1c(CN2CCC(c3ccc(C(=O)N4CCC(CN5CCN(C(=O)c6ccccc6NC6CCC(=O)NC6=O)CC5)CC4)cc3)CC2)cc2c(-c3ccc4[nH]ncc4c3)ccnc21` (centres unmarked) [Example 2t2, 3-((2-(4-((1-(4-(1-((4-(1H-indazol-5-yl)-1-methyl-1H-pyrrolo[2,3-b]pyridin-2-yl)methyl)-piperidin-4-yl)benzoyl)piperidin-4-yl)methyl)piperazine-1-carbonyl)phenyl)amino)piperidine-2,6-dione]: the Emax is less than 20%.

Turning to `Cn1c(CN2CCC(c3ccc(C(=O)N4CCC(CN5CCN(c6ccc(NC7CCC(=O)NC7=O)nc6)CC5)CC4)cc3)CC2)cc2c(-c3ccc4[nH]ncc4c3)ccnc21` (centres unmarked) [Example 2t3, 3-((5-(4-((1-(4-(1-((4-(1H-indazol-5-yl)-1-methyl-1H-pyrrolo[2,3-b]pyridin-2-yl)methyl)piperidin-4-yl)benzoyl)piperidin-4-yl)methyl)piperazin-1-yl)pyridin-2-yl)amino)piperidine-2,6-dione], the Emax lay in the range of 40 to 50%.

For `Cn1c(CN2CCC(c3ccc(C(=O)N4CCC(OCC#Cc5cccc(NC6CCC(=O)NC6=O)c5)CC4)cc3)CC2)cc2c(-c3ccc4[nH]ncc4c3)ccnc21` (centres unmarked) [Example 2t5, 3-((3-(3-((1-(4-(1-((4-(1H-indazol-5-yl)-1-methyl-1H-pyrrolo[2,3-b]pyridin-2-yl)methyl)-piperidin-4-yl)benzoyl)piperidin-4-yl)oxy)prop-1-yn-1-yl)phenyl)amino)-piperidine-2,6-dione], the maximal effect (Emax) was in the range of 30 to 40%.
